± gives the expanded uncertainty stated by the source.
Assays:
[1] = for surface tension liquid-gas: Maximal bubble pressure; for mass density: 100 kPa, Liquid, Vibrating tube method
[2] = refractive index (Na D-line) (dimensionless); conditions: 100 kPa, Liquid, Standard Abbe refractometry

CCCCCCn1cc[n+](C)c1.C[C@@H](O)[C@H](N)C(=O)[O-] [1-hexyl-3-methylimidazolium DL-threoninate]
Conditions | mass density, [1] [kg/m3] | refractive index, [2] | surface tension liquid-gas, [1] [mN/m]
288.15 K | 1089.98 ± 0.68 | 1.5049 ± 0.0013 | 37 ± 0.5
293.15 K | 1086.67 ± 0.68 | 1.5033 ± 0.0013 | 36.6 ± 0.5
298.15 K | 1083.36 ± 0.68 | 1.5019 ± 0.0013 | 36.3 ± 0.5
303.15 K | 1080.02 ± 0.68 | 1.5001 ± 0.0013 | 36 ± 0.5
308.15 K | 1076.7 ± 0.68 | 1.4988 ± 0.0013 | 35.7 ± 0.5
313.15 K | 1073.42 ± 0.67 | 1.4971 ± 0.0013 | 35.4 ± 0.5
318.15 K | 1069.96 ± 0.67 | 1.4957 ± 0.0013 | 35 ± 0.5
323.15 K | 1066.82 ± 0.67 | 1.494 ± 0.0013 | 34.7 ± 0.5
328.15 K | 1063.52 ± 0.67 | 1.4925 ± 0.0013 | 34.4 ± 0.5

CCCCCn1cc[n+](C)c1.C[C@@H](O)[C@H](N)C(=O)[O-] [1-pentyl-3-methylimidazolium DL-threoninate]
Conditions | mass density, [1] [kg/m3] | refractive index, [2] | surface tension liquid-gas, [1] [mN/m]
288.15 K | 1107.7 ± 0.68 | 1.508 ± 0.0013 | 38.2 ± 0.5
293.15 K | 1104.39 ± 0.68 | 1.5065 ± 0.0013 | 37.8 ± 0.5
298.15 K | 1101.08 ± 0.68 | 1.5048 ± 0.0013 | 37.6 ± 0.5
303.15 K | 1097.75 ± 0.68 | 1.5032 ± 0.0013 | 37.2 ± 0.5
308.15 K | 1094.43 ± 0.68 | 1.5018 ± 0.0013 | 36.9 ± 0.5
313.15 K | 1091.16 ± 0.68 | 1.5001 ± 0.0013 | 36.6 ± 0.5
318.15 K | 1087.7 ± 0.68 | 1.4987 ± 0.0013 | 36.2 ± 0.5
323.15 K | 1084.55 ± 0.68 | 1.497 ± 0.0013 | 35.9 ± 0.5
328.15 K | 1081.25 ± 0.68 | 1.4955 ± 0.0013 | 35.6 ± 0.5

CCCn1cc[n+](C)c1.C[C@@H](O)[C@H](N)C(=O)[O-] [1-propyl-3-methylimidazolium DL-threoninate]
Conditions | mass density, [1] [kg/m3] | refractive index, [2] | surface tension liquid-gas, [1] [mN/m]
288.15 K | 1151.33 ± 0.7 | 1.5147 ± 0.0013 | 41.4 ± 0.5
293.15 K | 1148.8 ± 0.7 | 1.5131 ± 0.0013 | 41.1 ± 0.5
298.15 K | 1144.52 ± 0.7 | 1.5116 ± 0.0013 | 40.7 ± 0.5
303.15 K | 1141.13 ± 0.7 | 1.5101 ± 0.0013 | 40.4 ± 0.5
308.15 K | 1137.76 ± 0.69 | 1.5086 ± 0.0013 | 40.1 ± 0.5
313.15 K | 1134.38 ± 0.69 | 1.5071 ± 0.0013 | 39.8 ± 0.5
318.15 K | 1130.9 ± 0.69 | 1.5055 ± 0.0013 | 39.4 ± 0.5
323.15 K | 1127.5 ± 0.69 | 1.5039 ± 0.0013 | 39.1 ± 0.5
328.15 K | 1124.07 ± 0.69 | 1.5026 ± 0.0013 | 38.7 ± 0.5

— the NIST ThermoML archive (doi:10.1016/j.jct.2017.07.024)
